According to US20150284667A1, “ALCOHOLIC BEVERAGES WITH HEALTH-BENEFITTING AND PROTECTIVE CHARACTERISTICS” (Cerebral Spirits Corporation, priority 2014, published 2015):

How the values were obtained:
[1] = system: breast cancer and liver cancer; details: animal studies; cited from earlier work
hepatocytes = details: cited from earlier work

Solubility in ethanol (Solubility in ethanol) | Structure (SMILES) | Antitumor activity [1] | Protection of hepatocytes against ethanol-induced cell cytotoxicity (hepatocytes)
– | COc1cc(/C=C/C(=O)O)ccc1O [Ferulic acid, ferulic acid] | direct antitumor activity | –
ethanol soluble | CCNC(=O)CC[C@H](N)C(=O)O [L-theanine, gamma-glutamylethylamide] | – | significantly protect hepatocytes
ethanol soluble | Oc1ccc(C=Cc2cc(O)cc(O)c2)cc1 [Resveratrol, resveratrol] | – | –
